From PubChem BioAssay AID248 (DTP/NCI, 2004)
“And” between values parts separate entries of the source, which are not always exact repeats. Equal values may be shown once. Toxic doses and inconclusive results are not listed.

Test system: L1210 leukemia ip in BDF1 mice, survival T/C
Experiment: NCI In Vivo Anticancer Drug Screen. Data for tumor model L1210 Leukemia (intraperitoneal) in B6D2F1 (BDF1) mice
Conditions: endpoint: mean survival time, higher = longer survival
In short: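 Each compound was tested against a transplantable tumor grown in mice. The endpoint was survival, with treated animals benchmarked against vehicle controls as a simple ratio.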

[1] = dose: 100.0 mg/kg/injection, schedule: Q01DX001 (ip), vehicle: saline
[2] = dose: 200.0 mg/kg/injection, schedule: Q01DX001 (ip), vehicle: saline
[3] = dose: 400.0 mg/kg/injection, schedule: Q01DX001 (ip), vehicle: saline
[4] = dose: 100.0 mg/kg/injection, schedule: Q01DX009 (ip), vehicle: Klucel (hydroxypropylcellulose) (HPC)
[5] = dose: 100.0 mg/kg/injection, schedule: Q04DX003 (ip), vehicle: Klucel (hydroxypropylcellulose) (HPC)
[6] = dose: 200.0 mg/kg/injection, schedule: Q01DX009 (ip), vehicle: Klucel (hydroxypropylcellulose) (HPC)
[7] = dose: 200.0 mg/kg/injection, schedule: Q04DX003 (ip), vehicle: Klucel (hydroxypropylcellulose) (HPC)
[8] = dose: 400.0 mg/kg/injection, schedule: Q01DX009 (ip), vehicle: Klucel (hydroxypropylcellulose) (HPC)
[9] = dose: 400.0 mg/kg/injection, schedule: Q04DX003 (ip), vehicle: Klucel (hydroxypropylcellulose) (HPC)
[10] = dose: 100.0 mg/kg/injection, schedule: Q04DX003 (ip), vehicle: saline
[11] = dose: 200.0 mg/kg/injection, schedule: Q04DX003 (ip), vehicle: saline
[12] = dose: 400.0 mg/kg/injection, schedule: Q04DX003 (ip), vehicle: saline

CCCCCCCCCCCC(=O)[O][Sn]([CH2]C)([CH2]C)[O]C(=O)CCCCCCCCCCC
T/C (dose: 6.25 mg/kg/injection, schedule: Q04DX003 (ip), vehicle: saline): 112 % of control | T/C (dose: 8.75 mg/kg/injection, schedule: Q01DX009 (ip), vehicle: saline with Tween-80): 98 % of control | T/C (dose: 12.5 mg/kg/injection, schedule: Q01DX001 (ip), vehicle: saline): 103 % of control | T/C (dose: 12.5 mg/kg/injection, schedule: Q04DX003 (ip), vehicle: saline): 105 % of control | T/C (dose: 17.5 mg/kg/injection, schedule: Q01DX009 (ip), vehicle: saline with Tween-80): 121 % of control | T/C (dose: 25.0 mg/kg/injection, schedule: Q01DX001 (ip), vehicle: saline): 109 % of control | T/C (dose: 25.0 mg/kg/injection, schedule: Q04DX003 (ip), vehicle: saline): 112 % of control | T/C (dose: 35.0 mg/kg/injection, schedule: Q04DX003 (ip), vehicle: acetone): 106 % of control

c1ccc2c(c1)CCC1C3CCCC3OCN21 (stereo unspecified)
T/C (dose: 50.0 mg/kg/injection, schedule: Q04DX002 (ip), vehicle: saline with Tween-80): 101 % of control | T/C (dose: 100.0 mg/kg/injection, schedule: Q04DX002 (ip), vehicle: saline with Tween-80): 101 % of control | T/C (dose: 200.0 mg/kg/injection, schedule: Q04DX002 (ip), vehicle: saline with Tween-80): 104 % of control

CCCCCCCCCCCC(c1ccccc1)N(C)C (stereo unspecified)
T/C (dose: 50.0 mg/kg/injection, schedule: Q01DX001 (ip), vehicle: saline): 98 % of control | T/C [1]: 93 % of control | T/C [2]: 93 % of control | T/C [3]: 93 % of control

CC(=O)Nc1ccc2ccc3ccccc3c2c1
T/C [4]: 94 % of control | T/C [5]: 98 % of control | T/C [6]: 95 % of control | T/C [7]: 98 % of control | T/C [8]: 92 % of control | T/C [9]: 94 % of control

CSCCOP(=O)(N(C)C)N(C)C
T/C (dose: 100.0 mg/kg/injection, schedule: Q04DX002 (ip), vehicle: Klucel (hydroxypropylcellulose) (HPC)): 103 % of control | T/C (dose: 200.0 mg/kg/injection, schedule: Q04DX002 (ip), vehicle: Klucel (hydroxypropylcellulose) (HPC)): 103 % of control | T/C (dose: 400.0 mg/kg/injection, schedule: Q04DX002 (ip), vehicle: Klucel (hydroxypropylcellulose) (HPC)): 88 % of control

CCCCCCCCCCCCCCCCCC(CCCCCCCCCCCCCCCC)CCCCCCCCCCCCCCCC
T/C (dose: 100.0 mg/kg/injection, schedule: Q01DX001 (ip), vehicle: carboxymethylcellulose (CMC)): 96 % of control | T/C (dose: 200.0 mg/kg/injection, schedule: Q01DX001 (ip), vehicle: carboxymethylcellulose (CMC)): 102 % of control | T/C (dose: 400.0 mg/kg/injection, schedule: Q01DX001 (ip), vehicle: carboxymethylcellulose (CMC)): 91 % of control

COc1cc(-c2cc(-c3ccccc3)c3cc(Cl)ccc3n2)cc(OC)c1OC
T/C (dose: 50.0 mg/kg/injection, schedule: Q01DX009 (ip), vehicle: Klucel (hydroxypropylcellulose) (HPC)): 90 % of control | T/C [4]: 88 % of control | T/C [6]: 93 % of control

CCC(N)CC
T/C (dose: 75.0 mg/kg/injection, schedule: Q01DX009 (ip), vehicle: saline): 104 % of control | T/C [10]: 105 % of control | T/C (dose: 150.0 mg/kg/injection, schedule: Q01DX009 (ip), vehicle: saline): 96 % of control and 100 % of control | T/C [11]: 103 % of control

O=C(Nc1ccc(CCNC2=NCCN2)cc1)c1ccc(C(=O)Nc2ccc(CCNC3=NCCN3)cc2)cc1
T/C (dose: 1.0 mg/kg/injection, schedule: Q01DX Z (ip), vehicle: water): 107 % of control | T/C (dose: 1.5 mg/kg/injection, schedule: Q01DX Z (ip), vehicle: water): 109 % of control | T/C (dose: 3.0 mg/kg/injection, schedule: Q01DX Z (ip), vehicle: water): 158 % of control | T/C (dose: 3.75 mg/kg/injection, schedule: Q01DX Z (ip), vehicle: water): 167 % of control | T/C (dose: 7.5 mg/kg/injection, schedule: Q01DX Z (ip), vehicle: water): 151 % of control | T/C (dose: 10.0 mg/kg/injection, schedule: Q01DX Z (ip), vehicle: carboxymethylcellulose (CMC)): 216 % of control | T/C (dose: 15.0 mg/kg/injection, schedule: Q01DX Z (ip), vehicle: water): 92 % of control | T/C (dose: 20.0 mg/kg/injection, schedule: Q01DX Z (ip), vehicle: carboxymethylcellulose (CMC)): 180 % of control | T/C (dose: 40.0 mg/kg/injection, schedule: Q01DX Z (ip), vehicle: carboxymethylcellulose (CMC)): 118 % of control | T/C (dose: 62.0 mg/kg/injection, schedule: Q01DX Z (oral), vehicle: water): 101 % of control | T/C (dose: 80.0 mg/kg/injection, schedule: Q01DX Z (ip), vehicle: carboxymethylcellulose (CMC)): 108 % of control | T/C (dose: 125.0 mg/kg/injection, schedule: Q01DX Z (oral), vehicle: water): 100 % of control | T/C (dose: 250.0 mg/kg/injection, schedule: Q01DX Z (oral), vehicle: water): 109 % of control | T/C (dose: 500.0 mg/kg/injection, schedule: Q01DX Z (oral), vehicle: water): 101 % of control

O=C(O)C1C2CCC3C(C(=O)O)C3C21 (stereo unspecified)
T/C [4]: 100 % of control | T/C [5]: 97 % of control | T/C [6]: 97 % of control | T/C [7]: 101 % of control | T/C [8]: 92 % of control | T/C [9]: 98 % of control

O=[N+]([O-])c1ccc2c(c1)c(-c1cccc3ccccc13)nc1ccccc12
T/C (dose: 100.0 mg/kg/injection, schedule: Q04DX003 (ip), vehicle: saline with Tween-80): 95 % of control | T/C (dose: 200.0 mg/kg/injection, schedule: Q04DX003 (ip), vehicle: saline with Tween-80): 93 % of control | T/C (dose: 400.0 mg/kg/injection, schedule: Q04DX003 (ip), vehicle: saline with Tween-80): 91 % of control

Cc1ccc(NS(=O)(=O)c2ccc(F)cc2)cc1Cl
T/C [4]: 92 % of control | T/C [5]: 100 % of control | T/C [6]: 95 % of control | T/C [7]: 97 % of control | T/C [8]: 95 % of control | T/C [9]: 97 % of control

CCCCCCC(CCCCCC)(CCCCCC)B1OCCO1
T/C (dose: 100.0 mg/kg/injection, schedule: Q01DX009 (ip), vehicle: saline sonified): 96 % of control | T/C [10]: 102 % of control | T/C (dose: 200.0 mg/kg/injection, schedule: Q01DX009 (ip), vehicle: saline sonified): 106 % of control | T/C [11]: 102 % of control | T/C (dose: 400.0 mg/kg/injection, schedule: Q01DX009 (ip), vehicle: saline sonified): 95 % of control | T/C [12]: 96 % of control

COC1=C(OC)C(=O)C(SCCCc2ccccc2)=CC1=O
T/C (dose: 1.56 mg/kg/injection, schedule: Q01DX009 (im), vehicle: olive oil, sesame oil, peanut oil): 101 % of control | T/C (dose: 3.13 mg/kg/injection, schedule: Q01DX009 (im), vehicle: olive oil, sesame oil, peanut oil): 96 % of control | T/C (dose: 6.25 mg/kg/injection, schedule: Q01DX009 (im), vehicle: olive oil, sesame oil, peanut oil): 98 % of control | T/C (dose: 12.5 mg/kg/injection, schedule: Q01DX009 (im), vehicle: olive oil, sesame oil, peanut oil): 101 % of control | T/C (dose: 25.0 mg/kg/injection, schedule: Q01DX009 (im), vehicle: olive oil, sesame oil, peanut oil): 98 % of control

C/C=C1/C(=O)O[C@]23C=C[C@@H]4C(C(=O)OC)=CO[C@H](O[C@@H]12)[C@@H]43
T/C [1]: 104 % of control | T/C [2]: 103 % of control | T/C [3]: 98 % of control

Cc1cccc(C(=O)C=C(C(F)(F)F)C(F)(F)F)c1
T/C (dose: 12.5 mg/kg/injection, schedule: Q04DX003 (ip), vehicle: saline with Tween-80): 103 % of control | T/C (dose: 25.0 mg/kg/injection, schedule: Q04DX003 (ip), vehicle: saline with Tween-80): 111 % of control | T/C (dose: 50.0 mg/kg/injection, schedule: Q04DX003 (ip), vehicle: saline with Tween-80): 102 % of control and 118 % of control

Cc1ccc(C)c(OS(=O)(=O)c2ccc([N+](=O)[O-])cc2)c1
T/C [4]: 98 % of control | T/C [5]: 100 % of control | T/C [6]: 92 % of control | T/C [7]: 91 % of control | T/C [8]: 97 % of control | T/C [9]: 89 % of control

Cc1cccc[n+]1CC(=O)c1ccccc1
T/C [10]: 94 % of control

O=CN/N=C/c1ccc([N+](=O)[O-])cc1
T/C (dose: 75.0 mg/kg/injection, schedule: Q01DX001 (ip), vehicle: saline): 92 % of control | T/C (dose: 150.0 mg/kg/injection, schedule: Q01DX001 (ip), vehicle: saline): 87 % of control | T/C (dose: 300.0 mg/kg/injection, schedule: Q01DX001 (ip), vehicle: saline): 89 % of control

CC1=Nc2ccc([N+](=O)[O-])cc2N=C(C)C1
T/C (dose: 100.0 mg/kg/injection, schedule: Q01DX009 (ip), vehicle: saline): 95 % of control | T/C [10]: 105 % of control | T/C (dose: 200.0 mg/kg/injection, schedule: Q01DX009 (ip), vehicle: saline): 93 % of control | T/C [11]: 96 % of control | T/C (dose: 400.0 mg/kg/injection, schedule: Q01DX009 (ip), vehicle: saline): 92 % of control | T/C [12]: 96 % of control
